In US9492471B2, “Methods of treating a disease or disorder associated with Bruton'S Tyrosine Kinase” (Celgene Avilomics Research, Inc., priority 2013, dated 2016):
Read-outs that look alike come from different tables or passages of the source.

How the values were obtained:
Assay in all cases: HotSpot kinase profiling
Format in all cases: biochemical
LCK2/ICK = target: T1, LCK2/ICK (Homo sapiens, UniProt Q9UPZ9)
T1 construct: purchased Reaction Biology Corp
T1 sequence (Q9UPZ9 1-632): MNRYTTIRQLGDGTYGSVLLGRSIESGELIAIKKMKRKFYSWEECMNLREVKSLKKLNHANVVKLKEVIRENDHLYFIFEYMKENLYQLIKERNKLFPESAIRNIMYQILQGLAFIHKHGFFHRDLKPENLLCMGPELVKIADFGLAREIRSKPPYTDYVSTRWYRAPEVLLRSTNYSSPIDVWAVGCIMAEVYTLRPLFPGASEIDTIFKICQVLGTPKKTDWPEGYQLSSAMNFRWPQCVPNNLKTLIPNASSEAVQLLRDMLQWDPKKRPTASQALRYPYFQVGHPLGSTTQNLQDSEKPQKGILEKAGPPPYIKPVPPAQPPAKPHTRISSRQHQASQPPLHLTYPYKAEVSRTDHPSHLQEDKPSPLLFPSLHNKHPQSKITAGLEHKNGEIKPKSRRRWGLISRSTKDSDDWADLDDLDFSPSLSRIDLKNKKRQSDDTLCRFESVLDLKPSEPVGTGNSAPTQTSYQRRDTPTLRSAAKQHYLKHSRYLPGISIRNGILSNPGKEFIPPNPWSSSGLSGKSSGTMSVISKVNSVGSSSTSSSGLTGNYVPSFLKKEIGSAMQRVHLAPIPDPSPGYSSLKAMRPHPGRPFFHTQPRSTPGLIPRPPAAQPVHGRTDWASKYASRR
How it was run: (§1)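 Radiometric kinase assay with P81 filter capture; each kinase was added to fresh substrate plus cofactors in reaction buffer and incubated 2 h at room temperature. Unreacted phosphate was washed off with 0.1% phosphoric acid before detection; percent inhibition is relative to DMSO control, averaged over replicates.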

NLK = target: T2, NLK (Homo sapiens, UniProt Q9UBE8)
T2 construct: purchased Reaction Biology Corp
T2 sequence (Q9UBE8 1-527): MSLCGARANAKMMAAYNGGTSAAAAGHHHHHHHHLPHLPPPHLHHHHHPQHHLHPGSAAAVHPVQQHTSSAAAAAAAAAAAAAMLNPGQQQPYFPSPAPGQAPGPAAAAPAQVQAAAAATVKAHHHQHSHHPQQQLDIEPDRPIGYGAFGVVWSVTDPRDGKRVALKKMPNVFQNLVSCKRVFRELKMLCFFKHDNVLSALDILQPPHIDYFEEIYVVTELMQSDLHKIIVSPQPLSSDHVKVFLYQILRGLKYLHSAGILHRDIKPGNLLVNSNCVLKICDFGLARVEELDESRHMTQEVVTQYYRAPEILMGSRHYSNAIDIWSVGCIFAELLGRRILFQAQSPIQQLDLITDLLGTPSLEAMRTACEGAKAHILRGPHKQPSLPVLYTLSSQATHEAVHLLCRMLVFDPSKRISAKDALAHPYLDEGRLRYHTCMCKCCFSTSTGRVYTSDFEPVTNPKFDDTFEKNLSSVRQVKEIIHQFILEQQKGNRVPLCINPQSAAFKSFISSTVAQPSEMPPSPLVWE
How it was run: as §1

FGFR4 = target: T3, FGFR4 (Homo sapiens, UniProt P22455)
T3 construct: purchased Reaction Biology Corp
T3 sequence (P22455 22-802): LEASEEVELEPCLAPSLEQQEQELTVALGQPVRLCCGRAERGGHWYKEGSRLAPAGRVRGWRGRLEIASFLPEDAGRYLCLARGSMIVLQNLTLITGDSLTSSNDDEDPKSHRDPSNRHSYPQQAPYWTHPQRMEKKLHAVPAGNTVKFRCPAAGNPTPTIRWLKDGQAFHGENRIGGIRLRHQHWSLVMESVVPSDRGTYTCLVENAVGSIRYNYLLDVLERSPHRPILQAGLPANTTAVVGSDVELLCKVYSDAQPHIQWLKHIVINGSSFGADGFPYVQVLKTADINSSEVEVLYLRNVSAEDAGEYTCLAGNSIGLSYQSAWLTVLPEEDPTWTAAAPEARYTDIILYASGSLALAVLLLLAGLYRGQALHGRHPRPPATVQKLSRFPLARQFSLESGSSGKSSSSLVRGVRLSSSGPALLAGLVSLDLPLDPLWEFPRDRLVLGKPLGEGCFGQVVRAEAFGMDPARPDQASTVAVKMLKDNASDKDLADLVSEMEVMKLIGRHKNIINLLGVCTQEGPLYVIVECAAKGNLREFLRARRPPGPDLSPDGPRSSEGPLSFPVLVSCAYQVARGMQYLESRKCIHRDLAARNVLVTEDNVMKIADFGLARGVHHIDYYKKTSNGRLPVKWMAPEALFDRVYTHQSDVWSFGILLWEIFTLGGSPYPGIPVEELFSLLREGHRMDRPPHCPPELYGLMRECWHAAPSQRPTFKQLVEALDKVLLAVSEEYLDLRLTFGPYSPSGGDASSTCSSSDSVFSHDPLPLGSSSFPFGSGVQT
How it was run: as §1

MKK6 = target: T4, MKK6 (Homo sapiens, UniProt P52564)
T4 construct: purchased Reaction Biology Corp
T4 sequence (P52564 1-334): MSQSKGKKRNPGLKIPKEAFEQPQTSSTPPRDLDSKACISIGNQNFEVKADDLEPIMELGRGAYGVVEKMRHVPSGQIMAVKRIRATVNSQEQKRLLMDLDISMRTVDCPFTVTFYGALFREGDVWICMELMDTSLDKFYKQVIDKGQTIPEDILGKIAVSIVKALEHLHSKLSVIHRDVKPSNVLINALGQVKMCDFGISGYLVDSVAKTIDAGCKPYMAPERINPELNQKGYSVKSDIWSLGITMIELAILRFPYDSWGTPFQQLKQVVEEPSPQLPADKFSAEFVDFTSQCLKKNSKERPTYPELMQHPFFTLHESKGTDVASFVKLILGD
How it was run: as §1

MEKK1 = target: T5, MEKK1 (Homo sapiens, UniProt Q13233)
T5 construct: purchased Reaction Biology Corp
T5 sequence (Q13233 whole entry): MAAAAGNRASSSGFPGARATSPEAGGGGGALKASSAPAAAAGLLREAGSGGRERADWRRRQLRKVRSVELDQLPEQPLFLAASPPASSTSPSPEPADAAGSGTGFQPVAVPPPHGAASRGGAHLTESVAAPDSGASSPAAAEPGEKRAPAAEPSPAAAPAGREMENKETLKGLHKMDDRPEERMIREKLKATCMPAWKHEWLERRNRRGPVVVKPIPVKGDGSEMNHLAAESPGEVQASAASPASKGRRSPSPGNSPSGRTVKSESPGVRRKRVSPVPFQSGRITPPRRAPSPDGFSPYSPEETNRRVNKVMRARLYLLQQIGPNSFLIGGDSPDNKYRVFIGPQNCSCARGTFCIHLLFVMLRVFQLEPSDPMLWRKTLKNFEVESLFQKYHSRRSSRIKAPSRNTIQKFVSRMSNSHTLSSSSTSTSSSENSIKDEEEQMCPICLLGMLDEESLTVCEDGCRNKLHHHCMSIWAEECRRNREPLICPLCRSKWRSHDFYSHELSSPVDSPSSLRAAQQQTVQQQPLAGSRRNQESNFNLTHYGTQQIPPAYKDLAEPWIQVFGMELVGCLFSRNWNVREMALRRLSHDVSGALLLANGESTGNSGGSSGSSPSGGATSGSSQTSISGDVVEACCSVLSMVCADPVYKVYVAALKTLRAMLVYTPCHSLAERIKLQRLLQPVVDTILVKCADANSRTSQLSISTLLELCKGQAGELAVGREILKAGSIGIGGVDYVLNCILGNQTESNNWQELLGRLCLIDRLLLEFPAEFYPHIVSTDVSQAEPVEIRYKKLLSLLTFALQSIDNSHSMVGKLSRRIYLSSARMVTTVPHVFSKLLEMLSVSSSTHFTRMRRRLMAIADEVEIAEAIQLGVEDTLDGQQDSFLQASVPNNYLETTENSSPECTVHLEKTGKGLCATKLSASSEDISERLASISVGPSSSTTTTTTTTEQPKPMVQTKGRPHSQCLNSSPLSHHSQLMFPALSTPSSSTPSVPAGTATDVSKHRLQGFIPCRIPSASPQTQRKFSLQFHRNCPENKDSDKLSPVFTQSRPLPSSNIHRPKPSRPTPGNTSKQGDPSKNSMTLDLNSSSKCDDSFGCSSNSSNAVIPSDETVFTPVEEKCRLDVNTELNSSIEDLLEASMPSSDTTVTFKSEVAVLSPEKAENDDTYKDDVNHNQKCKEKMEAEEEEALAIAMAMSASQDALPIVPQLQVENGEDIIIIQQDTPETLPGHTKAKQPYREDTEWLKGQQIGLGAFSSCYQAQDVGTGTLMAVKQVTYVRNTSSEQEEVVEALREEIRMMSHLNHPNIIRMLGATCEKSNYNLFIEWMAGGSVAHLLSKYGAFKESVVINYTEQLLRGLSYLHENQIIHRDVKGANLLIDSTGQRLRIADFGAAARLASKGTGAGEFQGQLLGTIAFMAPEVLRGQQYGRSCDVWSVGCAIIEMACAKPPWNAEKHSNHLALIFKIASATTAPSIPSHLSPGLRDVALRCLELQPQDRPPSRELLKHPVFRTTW
How it was run: as §1

HIPK4 = target: T6, HIPK4 (Homo sapiens, UniProt Q8NE63)
T6 construct: purchased Reaction Biology Corp
T6 sequence (Q8NE63 1-616): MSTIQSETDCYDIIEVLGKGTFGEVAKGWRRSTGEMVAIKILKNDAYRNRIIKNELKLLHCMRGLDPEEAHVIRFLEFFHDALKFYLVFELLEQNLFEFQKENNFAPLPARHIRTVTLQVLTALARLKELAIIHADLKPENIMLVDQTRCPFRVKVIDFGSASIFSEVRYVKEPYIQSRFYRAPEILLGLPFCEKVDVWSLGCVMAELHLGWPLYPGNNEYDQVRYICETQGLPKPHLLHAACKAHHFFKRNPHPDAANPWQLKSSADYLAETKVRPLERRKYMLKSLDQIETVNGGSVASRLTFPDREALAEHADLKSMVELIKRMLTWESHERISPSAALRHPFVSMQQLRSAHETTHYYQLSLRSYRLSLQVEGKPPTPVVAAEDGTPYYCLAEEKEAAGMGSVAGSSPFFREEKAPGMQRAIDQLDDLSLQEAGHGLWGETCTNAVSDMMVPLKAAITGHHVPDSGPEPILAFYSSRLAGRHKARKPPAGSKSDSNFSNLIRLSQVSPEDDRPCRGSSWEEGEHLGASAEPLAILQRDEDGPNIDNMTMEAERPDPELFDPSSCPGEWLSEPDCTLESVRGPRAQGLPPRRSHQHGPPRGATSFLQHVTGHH
How it was run: as §1

[1] = read-out: % Enzyme Activity (relative to DMSO controls) Run 1
[2] = read-out: % Enzyme Activity (relative to DMSO controls) Run 2

**Q.** For `C=CC(=O)Nc1cccc(Nc2nc(Nc3ccc(OCCOC)c(F)c3)ncc2F)c1` [Compound 2], which inhibition at 3 µM (LCK2/ICK) is on record?
**A.** 1.98%

**Q.** And the remaining activity at 3 µM (LCK2/ICK; [1])?
**A.** 101%

**Q.** And the remaining activity at 3 µM (LCK2/ICK; [2])?
**A.** 95.1%

**Q.** And the inhibition at 3 µM (NLK)?
**A.** -1.29%

**Q.** What about the remaining activity at 3 µM (NLK; [1]) of the same compound?
**A.** 99.6%

**Q.** And the remaining activity at 3 µM (NLK; [2])?
**A.** 103%

**Q.** And the inhibition at 3 µM (FGFR4)?
**A.** 35.1%

**Q.** What about the remaining activity at 3 µM (FGFR4; [1]) of the same compound?
**A.** 66.3%

**Q.** What about the remaining activity at 3 µM (FGFR4; [2]) of the same compound?
**A.** 63.4%

**Q.** And the inhibition at 3 µM (MKK6)?
**A.** 3.11%

**Q.** What about the remaining activity at 3 µM (MKK6; [1]) of the same compound?
**A.** 96.4%

**Q.** What about the remaining activity at 3 µM (MKK6; [2]) of the same compound?
**A.** 97.4%

**Q.** And the inhibition at 3 µM (MEKK1)?
**A.** -14.7%

**Q.** What about the remaining activity at 3 µM (MEKK1; [1]) of the same compound?
**A.** 113%

**Q.** And the remaining activity at 3 µM (MEKK1; [2])?
**A.** 117%

**Q.** What about the inhibition at 3 µM (HIPK4) of the same compound?
**A.** 6.31%

**Q.** What about the remaining activity at 3 µM (HIPK4; [1]) of the same compound?
**A.** 93.6%

**Q.** And the remaining activity at 3 µM (HIPK4; [2])?
**A.** 93.8%
